Legend:
Assay in all cases: Bliss excess, mean over the matrix (fraction); higher = more synergy
[1] = test system: H9 (T-Cell Non-Hodgkin's Lymphoma)
Outline: (§1)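 Cell lines in DMEM/F12 or RPMI with 10% FBS were plated in 1536-well plates, held 24 hours at 37°C, 5% CO2, then given two-drug dose matrices for 72 hours (DMSO typically 0.2%). Viability was read by CellTiter-Glo 2.0 luminescence and scaled as inhibition from 0 (vehicle wells) to 1 (blank wells). Combination Emax is the second-highest inhibition in the matrix; Bliss excess is observed combination effect minus expected EA + EB − EA·EB, EA and EB being single-agent effects.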

[2] = test system: JHH-4 (Hepatocellular Carcinoma)
Outline: as §1

[3] = test system: NCCIT (Other Solid Carcinomas)
Outline: as §1

[4] = test system: KY821 (Acute Myeloid Leukemia)
Outline: as §1

[5] = test system: NCI-H661 (Non-Small Cell Lung Carcinoma)
Outline: as §1

[6] = test system: RD (Rhabdomyosarcoma)
Outline: as §1

[7] = test system: DMS-114 (Small Cell Lung Carcinoma)
Outline: as §1

[8] = test system: 8505C (Thyroid Gland Carcinoma)
Outline: as §1

[9] = test system: COR-L279 (Small Cell Lung Carcinoma)
Outline: as §1

[10] = test system: PC-3 (Prostate Carcinoma)
Outline: as §1

[11] = test system: SK-GT-4 (Esophageal Adenocarcinoma)
Outline: as §1

[12] = test system: KU812 (Chronic Myelogenous Leukemia)
Outline: as §1

[13] = test system: RPMI-8226 (Plasma Cell Myeloma)
Outline: as §1

[14] = test system: SU-DHL-5 (B-Cell Non-Hodgkin's Lymphoma)
Outline: as §1

[15] = test system: MOG-G-CCM (Low Grade Glioma)
Outline: as §1

[16] = test system: VMRC-RCZ (Kidney Carcinoma)
Outline: as §1

[17] = test system: CW-2 (Colorectal Carcinoma)
Outline: as §1

[18] = test system: NCI-H3122 (Lung Adenocarcinoma)
Outline: as §1

[19] = test system: NCI-H929 (Plasma Cell Myeloma)
Outline: as §1

[20] = test system: G-361 (Melanoma)
Outline: as §1

SMILES	Bliss excess [1]	Bliss excess [2]	Bliss excess [3]	Bliss excess [4]	Bliss excess [5]	Bliss excess [6]	Bliss excess [7]	Bliss excess [8]	Bliss excess [9]	Bliss excess [10]	Bliss excess [11]	Bliss excess [12]	Bliss excess [13]	Bliss excess [14]	Bliss excess [15]	Bliss excess [16]	Bliss excess [17]	Bliss excess [18]	Bliss excess [19]	Bliss excess [20]
CN(C)CCCOc1ccc(-c2ccc3ncc4c(c3c2)n(C2CCOCC2)c(=O)n4C)cn1 [AZD0156] + CCN(CCO)CCCOc1ccc2c(Nc3cc(CC(=O)Nc4cccc(F)c4)[nH]n3)ncnc2c1 [AZD2811] (first compound max 1 µM, 7x7, partner max 1 µM)	-0.124	-0.0297	-0.0059	0.147	-0.0304	-0.0374	-0.0209	-0.0257	0.0256	-0.0243	-0.0603	-0.0158	0.0092	-0.0542	-0.0228	-0.0451	-0.0163	-0.0048	0.0125	-0.0148
COc1cccc(OCCCN)c1-c1cc(Nc2cnc(C#N)cn2)n[nH]1 [Prexasertib] + CCc1c2c(nc3ccc(O)cc13)-c1cc3c(c(=O)n1C2)COC(=O)[C@]3(O)CC [SN-38] (first compound max 1 µM, 7x7, partner max 0.3 µM)	-0.0004	-0.0289	0.0269	-0.0235	0.0419	0.065	0.0663	-0.0559	-0.0221	-0.0185	-0.0304	-0.124	0.0686	0.0023	0.0411	0.0578	-0.0035	-0.002	-0.0713	-0.0219
Cn1cnc2c(F)c(Nc3ccc(Br)cc3Cl)c(C(=O)NOCCO)cc21 [Selumetinib] + C[C@@H]1COCCN1C2=NC(=NC(=C2)C3(CC3)[S@](=N)(=O)C)C4=C5C=CNC5=NC=C4 [AZD6738] (first compound max 10 µM, 7x7, partner max 10 µM)	-0.03	-0.0395	-0.0802	-0.0519	-0.0627	0.0877	-0.0395	0.111	-0.0377	-0.036	0.017	-0.0779	0.0032	0.074	-0.0704	-0.0594	0.009	-0.0471	-0.121	-0.0081
Cc1c2c(nn1C)CSCc1cc(n(C)n1)CSc1cc(c3ccccc3c1)OCCCc1c(C(=O)O)n(C)c3c-2c(Cl)ccc13 [AZD5991] + CC1(C)CCC(CN2CCN(c3ccc(C(=O)NS(=O)(=O)c4ccc(NCC5CCOCC5)c([N+](=O)[O-])c4)c(Oc4cnc5[nH]ccc5c4)c3)CC2)=C(c2ccc(Cl)cc2)C1 [Venetoclax] (first compound max 1 µM, 7x7, partner max 1 µM)	0.0048	0.0098	-0.032	0.0331	0.052	0.0081	0.0306	-0.0253	0.0071	-0.0312	-0.0914	0.0353	0.007	-0.0379	-0.0199	-0.0605	0.0005	-0.0378	-0.033	0.008
Cc1c2c(nn1C)CSCc1cc(n(C)n1)CSc1cc(c3ccccc3c1)OCCCc1c(C(=O)O)n(C)c3c-2c(Cl)ccc13 [AZD5991] + C[C@@H]1COCCN1C2=NC(=NC(=C2)C3(CC3)[S@](=N)(=O)C)C4=C5C=CNC5=NC=C4 [AZD6738] (first compound max 1 µM, 7x7, partner max 10 µM)	0.0395	0.0496	0.0573	-0.0356	0.0528	0.0482	0.0436	0.0148	-0.0057	0.035	-0.0038	0.0296	0.008	-0.0059	-0.0252	0.0308	0.0514	0.056	-0.0296	0.0356
CCN(CCO)CCCOc1ccc2c(Nc3cc(CC(=O)Nc4cccc(F)c4)[nH]n3)ncnc2c1 [AZD2811] + C=CCn1c(=O)c2cnc(Nc3ccc(N4CCN(C)CC4)cc3)nc2n1-c1cccc(C(C)(C)O)n1 [AZD1775] (first compound max 1 µM, partner max 1 µM)	0.0252	0.0015	-0.0037	0.0868	-0.0029	-0.0222	-0.0129	-0.0071	0.0107	-0.0117	-0.0545	-0.034	-0.0172	-0.0309	-0.0178	-0.0512	-0.0169	-0.0512	-0.0671	-0.0162
COc1nnc2ccc(N3CCC(c4ccc(OCCN5CCN(C)C(=O)[C@H]5C)cc4)CC3)nn12 [AZD5153] + CC1(C)CCC(CN2CCN(c3ccc(C(=O)NS(=O)(=O)c4ccc(NCC5CCOCC5)c([N+](=O)[O-])c4)c(Oc4cnc5[nH]ccc5c4)c3)CC2)=C(c2ccc(Cl)cc2)C1 [Venetoclax] (first compound max 1 µM, 7x7, partner max 1 µM)	0.0162	-0.0442	-0.0245	-0.0376	-0.0574	-0.041	-0.0732	-0.07	-0.0945	-0.109	-0.0444	-0.058	-0.0035	-0.0107	-0.0471	-0.0224	-0.0642	-0.0372	0.0001	-0.0649
CN(CCO)CC[C@H](CSc1ccccc1)Nc1ccc(S(=O)(=O)NC(=O)c2ccc(N3CCC([C@@H](O)c4ccccc4-c4ccc(Cl)cc4)CC3)cc2)cc1S(=O)(=O)C(F)(F)F [AZD4320] + CCN(CCO)CCCOc1ccc2c(Nc3cc(CC(=O)Nc4cccc(F)c4)[nH]n3)ncnc2c1 [AZD2811] (first compound max 1 µM, 7x7, partner max 1 µM)	-0.0247	-0.0226	0.0034	0.162	-0.0322	0.0335	-0.0398	0.0545	0.051	-0.0127	-0.0425	-0.0082	0.0003	-0.143	0.0683	-0.0508	-0.0073	-0.0456	-0.0119	0.0679
Cc1cc2ncnn2cc1Nc1ncc2c(n1)n(C1CCOCC1)c(=O)n2C [AZD7648] + CCN(CCO)CCCOc1ccc2c(Nc3cc(CC(=O)Nc4cccc(F)c4)[nH]n3)ncnc2c1 [AZD2811] (first compound max 10 µM, 7x7, partner max 1 µM)	-0.0378	0.0136	0.0781	0.139	0.0564	-0.0243	0.0309	0.0059	-0.0803	-0.0346	-0.0041	0.0578	0.0363	-0.0094	0.0246	0.0038	-0.0089	0.0558	-0.0223	0.0453
CC1(C)CCC(CN2CCN(c3ccc(C(=O)NS(=O)(=O)c4ccc(NCC5CCOCC5)c([N+](=O)[O-])c4)c(Oc4cnc5[nH]ccc5c4)c3)CC2)=C(c2ccc(Cl)cc2)C1 [Venetoclax] + Cn1cnc2c(F)c(Nc3ccc(Br)cc3Cl)c(C(=O)NOCCO)cc21 [Selumetinib] (first compound max 1 µM, 7x7, partner max 3 µM)	0.0054	-0.0402	-0.0252	0.0329	-0.0243	-0.0425	-0.0371	-0.0184	0.0007	-0.0484	-0.0512	-0.0125	0.0187	0.0355	-0.0697	-0.0422	0.0239	-0.0309	0.027	-0.0154
Cn1cnc2c(F)c(Nc3ccc(Br)cc3Cl)c(C(=O)NOCCO)cc21 [Selumetinib] + CC(C)n1c(=O)n(C)c2cnc3cc(F)c(-c4ccc(OCCCN5CCCCC5)nc4)cc3c21 [AZD1390] (first compound max 10 µM, 7x7, partner max 0.3 µM)	-0.0033	-0.0444	-0.041	0.0169	-0.0559	-0.0405	-0.0191	-0.0717	-0.0094	-0.0688	0.0162	-0.0227	0.0158	0.0267	-0.0476	-0.0387	-0.0383	0.0111	0.0105	-0.0582
NC1(C(=O)N[C@@H](CCO)c2ccc(Cl)cc2)CCN(c2ncnc3[nH]ccc23)CC1 [Capivasertib] + CC(C)n1c(=O)n(C)c2cnc3cc(F)c(-c4ccc(OCCCN5CCCCC5)nc4)cc3c21 [AZD1390] (first compound max 10 µM, 7x7, partner max 0.3 µM)	-0.0341	-0.0504	-0.0628	-0.021	-0.0692	-0.0146	-0.0465	-0.0376	-0.0055	-0.0345	-0.0586	-0.0037	-0.0096	-0.0114	-0.0302	-0.035	-0.0469	-0.0304	-0.0187	-0.0344
